Some test systems named below: NCI/ADR-RES ovarian; MALME-3M melanoma; SN12C renal; UACC-257 melanoma; U251 CNS; HCC-2998 colon; RXF 393 renal; CAKI-1 renal; KM12 colon; SNB-19 CNS.
What all share (experiment): NCI tumour cell line growth inhibition, 48 h

Several values for one entry are separate records, joined by “and”; a condition that tells them apart may be missing. Equal entries are not always repeated.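 Each compound was tested at five concentrations against cells in 96-well plates for 48 hours. GI50 marks 50% less growth. Definition used: TGI = concentration required for complete inhibition of growth.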 Some results are limits rather than exact numbers.

As for `C=C1C(=O)O[C@@H]2OC3(C)CCC4C(C)CCC1C42OO3` (stereo partly specified), the GI50 with NCI/ADR-RES ovarian is 4.17 µM; in the assay on MALME-3M melanoma it was 4.13 µM; in the assay on SN12C renal it was 4.96 µM; in the assay on U251 CNS, 8.18 µM; with RXF 393 renal, 3.31 µM; with KM12 colon it was 2.66 µM. For the same compound, the GI50 with SNB-19 CNS is 12.6 µM. In addition, the TGI with NCI/ADR-RES ovarian was 18.6 µM and 6.51 µM; with SN12C renal it was 16.6 µM and 12.3 µM; with UACC-257 melanoma, 14.1 µM and 12 µM; with U251 CNS it was 21.2 µM and 16.8 µM; in the assay with HCC-2998 colon, 25.9 µM; with RXF 393 renal, 9.65 µM. Moreover, the TGI in the assay with CAKI-1 renal was 5.95 µM; with KM12 colon it was 9.02 µM and 16.4 µM; with SNB-19 CNS, 26.5 µM and 27.9 µM.

Turning to `COc1ccc(NCc2cnc3nc(N)nc(N)c3c2C)cc1`, the TGI with NCI/ADR-RES ovarian is over 100 µM; in the assay with MALME-3M melanoma, over 100 µM; with SN12C renal it was over 100 µM; in the assay on UACC-257 melanoma it was over 100 µM; in the assay with U251 CNS, over 100 µM; with HCC-2998 colon, over 31.6 µM. Also, the TGI in the assay on RXF 393 renal, with CAKI-1 renal, with KM12 colon and in the assay on SNB-19 CNS was over 100 µM each time.

For `NC(=O)c1ncn2c(=O)n(CCl)nnc12`, the TGI in the assay on NCI/ADR-RES ovarian, in the assay with MALME-3M melanoma, in the assay on SN12C renal, in the assay on UACC-257 melanoma, in the assay with U251 CNS and in the assay on HCC-2998 colon was over 100 µM each time. For the same compound, the TGI with RXF 393 renal, in the assay with CAKI-1 renal, in the assay on KM12 colon and in the assay with SNB-19 CNS was over 100 µM each time.

On to `COC(=O)c1c(O)ccc2c1c1c(n2Cc2ccccn2)C(=O)c2ccccc2C1=O`, for which the TGI in the assay on NCI/ADR-RES ovarian was over 100 µM; with MALME-3M melanoma, 89.8 µM; with SN12C renal, over 100 µM; with UACC-257 melanoma, over 100 µM; in the assay with U251 CNS, over 100 µM; with HCC-2998 colon it was 35 µM. The TGI with RXF 393 renal, in the assay on CAKI-1 renal, in the assay with KM12 colon and in the assay with SNB-19 CNS was over 100 µM in each case.

As to `O=c1oc2c/c(=C\c3ccccc3)c(=O)c3cccc1c3-2`, the TGI with NCI/ADR-RES ovarian is over 100 µM; with MALME-3M melanoma, 52.7 µM; in the assay on SN12C renal, over 100 µM; in the assay with UACC-257 melanoma, over 100 µM; with U251 CNS, 37.2 µM; in the assay with HCC-2998 colon, over 100 µM. In addition, the TGI turned out to be 72.6 µM in the assay on RXF 393 renal, 55.8 µM in the assay with CAKI-1 renal, 56.3 µM in the assay with KM12 colon and 67.9 µM in the assay with SNB-19 CNS.

For the compound `Cn1c(N=[N+]=[N-])cc(=O)n(C)c1=O`, the TGI in the assay on NCI/ADR-RES ovarian, in the assay on MALME-3M melanoma, in the assay on SN12C renal, with UACC-257 melanoma, in the assay with U251 CNS and in the assay on HCC-2998 colon was over 100 µM in each case. Besides, the TGI in the assay with RXF 393 renal, with CAKI-1 renal, in the assay on KM12 colon and with SNB-19 CNS was over 100 µM in each case.

In the case of `CCOC(=O)C1C[C@H]2CO[C@H](c3ccccc3)N2C1=O` (stereo partly specified), the TGI in the assay with NCI/ADR-RES ovarian, in the assay with MALME-3M melanoma, in the assay with SN12C renal, in the assay with UACC-257 melanoma, in the assay with U251 CNS and in the assay on HCC-2998 colon was over 100 µM throughout. In addition, the TGI in the assay with RXF 393 renal, with CAKI-1 renal, in the assay with KM12 colon and in the assay on SNB-19 CNS was over 100 µM throughout.

Regarding `C=CC[N+](CCO)(CCO)CCCCCCCCCCCCCCCCCC`, the TGI with NCI/ADR-RES ovarian is 55.8 µM; in the assay on MALME-3M melanoma, 31.1 µM; in the assay with SN12C renal it was 24 µM; with UACC-257 melanoma, 17.2 µM; in the assay with U251 CNS, 4.48 µM; in the assay on HCC-2998 colon, 10.6 µM. In addition, the TGI in the assay on RXF 393 renal turned out to be 5.24 µM; in the assay with CAKI-1 renal, 17.9 µM; in the assay on KM12 colon, 3.58 µM; with SNB-19 CNS, 35.3 µM.

In the case of `COc1cc(/C=c2/c3ccccc3n3c2cc(-c2ccccc2)[n+]3C)cc(OC)c1OC`, the TGI in the assay on NCI/ADR-RES ovarian is over 100 µM; with MALME-3M melanoma, 5.67 µM; with SN12C renal, 12 µM; in the assay with UACC-257 melanoma, 7.68 µM; with U251 CNS, 13.6 µM; in the assay with HCC-2998 colon, 19 µM. The TGI in the assay with RXF 393 renal was 6.18 µM; in the assay with CAKI-1 renal it was 11.8 µM; in the assay on KM12 colon, 3.67 µM; with SNB-19 CNS, 17.9 µM.

As for `CN(C)CCNC(=O)c1cccc2[nH]c(-c3ccncc3)nc12`, the TGI in the assay with NCI/ADR-RES ovarian is over 100 µM; in the assay on MALME-3M melanoma, 3.75 µM; with SN12C renal, over 76.3 µM; with UACC-257 melanoma, 3.51 µM; with U251 CNS, 9.82 µM; with HCC-2998 colon it was 4.34 µM. Also, the TGI in the assay with RXF 393 renal is 14.5 µM; in the assay with CAKI-1 renal, 5.95 µM; with KM12 colon, over 35.7 µM; in the assay with SNB-19 CNS, over 63.2 µM.

Turning to `O=C1c2ccccc2-c2nnc(-c3ccc(Cl)cc3)cc21`, the TGI with NCI/ADR-RES ovarian, in the assay with MALME-3M melanoma, with SN12C renal, with UACC-257 melanoma, in the assay with U251 CNS and in the assay with HCC-2998 colon was over 10 µM each time. Further, the TGI in the assay with RXF 393 renal, in the assay on CAKI-1 renal, in the assay with KM12 colon and in the assay with SNB-19 CNS was over 10 µM each time.

The values are drawn from PubChem BioAssay (NCI).
